In patent US10202361B2, “Pyridazinones as herbicides” (E I DU PONT DE NEMOURS AND COMPANY, priority 2014, dated 2019):

How the values were obtained:
Type in all cases: in vivo
[1] = tested on: blackgrass (Alopecurus myosuroides); assay: Test D pre-/postemergence controlled growth environment herbicide test; details: scale 0 to 100
How it was run: (§1)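 Pre-emergence treatment on silt loam soil and post-emergence treatment of 1- to 4-leaf plants (2–18 cm) in peat-based medium, compounds in a non-phytotoxic solvent with surfactant. Visual rating against untreated controls after 14–21 d in a controlled environment, scale 0 (no effect) to 100 (complete control).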

[2] = tested on: mustard, wild (wild mustard, Sinapis arvensis); assay: as above; details: scale 0 to 100
How it was run: as §1

[3] = tested on: windgrass (Apera spica-venti); assay: as above; details: scale 0 to 100
How it was run: as §1

[4] = tested on: crabgrass, large (large crabgrass Digitaria sanguinalis); assay: Test E pre-/postemergence greenhouse herbicide test; details: Preemergence, scale 0 to 100
[5] = tested on: goosegrass (Eleusine indica); assay: as above; details: Preemergence, scale 0 to 100
[6] = tested on: smartweed (ladysthumb smartweed, Polygonum persicaria); assay: as above; details: scale 0 to 100
How it was run: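 Visual control ratings on a 0 to 100 scale (100 = complete control) were made 14 to 21 d after treatment, relative to untreated controls. Test chemicals, formulated with surfactant in a non-phytotoxic solvent, were applied to seeded silt loam soil (preemergence) and to 2 to 18 cm plants (postemergence).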

[7] = tested on: cocklebur (common cocklebur, Xanthium strumarium); assay: as above; details: Preemergence, scale 0 to 100
[8] = tested on: nutsedge, yellow (yellow nutsedge, Cyperus esculentus); assay: as above; details: Preemergence, scale 0 to 100
[9] = tested on: waterhemp_RES2 (ALS & HPPD resistant common waterhemp, Amaranthus rudis); assay: Test E postemergence greenhouse herbicide test; details: scale 0 to 100
Method: At the same time, plants from these crop and weed species and also waterhemp_RES1, (ALS & Triazine resistant common waterhemp, Amaranthus rudis), and waterhemp_RES2, (ALS & HPPD resistant common waterhemp, Amaranthus rudis) were planted in pots containing Redi-Earth® planting medium (Scotts Company, 14111 Scottslawn Road, Marysville, Ohio 43041) comprising spaghnum peat moss, vermiculite, wetting agent and starter nutrients were treated with postemergence applications of test chemicals formulated in the same manner. Plants ranged in height from 2 to 18 cm for postemergence treatments (1- to 4-leaf stage). Treated plants and controls were maintained in a greenhouse for 14 to 21 d, after which time all species were compared to controls and visually evaluated. Plant response ratings, summarized in Table E, are based on a scale of 0 to 100 where 0 is no effect and 100 is complete control. A dash (-) response means no test result.

Compound: Cc1cc(=O)n(-c2ccc(F)cc2)nc1Cc1ccnc(C(F)(F)F)c1 [Compound 1, 2-(4-fluorophenyl)-5-methyl-6-[[2-(trifluoromethyl)-4-pyridinyl]methyl]-3(2H)-pyridazinone]
- Plant response rating ([1]; Postemergence, 31 g ai/ha): 0
- Plant response rating ([1]; Postemergence, 62 g ai/ha): 10
- Plant response rating ([1]; Postemergence, 125 g ai/ha): 10
- Plant response rating ([1]; Postemergence, 250 g ai/ha): 20
- Plant response rating ([1]; Postemergence, 500 g ai/ha): 20
- Plant response rating ([1]; Preemergence, 31 g ai/ha): 0
- Plant response rating ([1]; Preemergence, 62 g ai/ha): 0
- Plant response rating ([1]; Preemergence, 125 g ai/ha): 20
- Plant response rating ([1]; Preemergence, 250 g ai/ha): 40
- Plant response rating ([1]; Preemergence, 500 g ai/ha): 75
- Plant response rating ([2]; Postemergence, 31 g ai/ha): 20
- Plant response rating ([2]; Postemergence, 62 g ai/ha): 20
- Plant response rating ([2]; Postemergence, 125 g ai/ha): 30
- Plant response rating ([2]; Postemergence, 250 g ai/ha): 80
- Plant response rating ([2]; Postemergence, 500 g ai/ha): 80
- Plant response rating ([2]; Preemergence, 62 g ai/ha): 40
- Plant response rating ([2]; Preemergence, 250 g ai/ha): 95
- Plant response rating ([2]; Preemergence, 500 g ai/ha): 95
- Plant response rating ([3]; Postemergence, 31 g ai/ha): 20
- Plant response rating ([3]; Postemergence, 62 g ai/ha): 20
- Plant response rating ([3]; Postemergence, 125 g ai/ha): 20
- Plant response rating ([3]; Postemergence, 250 g ai/ha): 20
- Plant response rating ([3]; Postemergence, 500 g ai/ha): 20
- Plant response rating ([3]; Preemergence, 31 g ai/ha): 0
- Plant response rating ([3]; Preemergence, 62 g ai/ha): 20
- Plant response rating ([3]; Preemergence, 125 g ai/ha): 100
- Plant response rating ([3]; Preemergence, 250 g ai/ha): 100
- Plant response rating ([3]; Preemergence, 500 g ai/ha): 100

Compound: Cc1cc(=O)n(-c2ccc(C(F)(F)F)cc2)nc1Cc1ccnc(C(F)(F)F)c1 [Compound 2, 5-methyl-2-[4-(trifluoromethyl)phenyl]-6-[[2-(trifluoromethyl)-4-pyridinyl]methyl]-3(2H)-pyridazinone]
- Plant response rating ([1]; Postemergence, 31 g ai/ha): 5
- Plant response rating ([1]; Postemergence, 62 g ai/ha): 15
- Plant response rating ([1]; Postemergence, 125 g ai/ha): 20
- Plant response rating ([1]; Postemergence, 250 g ai/ha): 30
- Plant response rating ([1]; Postemergence, 500 g ai/ha): 50
- Plant response rating ([1]; Preemergence, 31 g ai/ha): 5
- Plant response rating ([1]; Preemergence, 62 g ai/ha): 20
- Plant response rating ([1]; Preemergence, 125 g ai/ha): 60
- Plant response rating ([1]; Preemergence, 250 g ai/ha): 60
- Plant response rating ([1]; Preemergence, 500 g ai/ha): 80
- Plant response rating ([2]; Postemergence, 31 g ai/ha): 10
- Plant response rating ([2]; Postemergence, 62 g ai/ha): 70
- Plant response rating ([2]; Postemergence, 125 g ai/ha): 80
- Plant response rating ([2]; Postemergence, 250 g ai/ha): 100
- Plant response rating ([2]; Postemergence, 500 g ai/ha): 100
- Plant response rating ([2]; Preemergence, 31 g ai/ha): 0
- Plant response rating ([2]; Preemergence, 62 g ai/ha): 100
- Plant response rating ([2]; Preemergence, 125 g ai/ha): 100
- Plant response rating ([2]; Preemergence, 250 g ai/ha): 100
- Plant response rating ([2]; Preemergence, 500 g ai/ha): 100
- Plant response rating ([3]; Postemergence, 31 g ai/ha): 10
- Plant response rating ([3]; Postemergence, 62 g ai/ha): 15
- Plant response rating ([3]; Postemergence, 125 g ai/ha): 20
- Plant response rating ([3]; Postemergence, 250 g ai/ha): 25
- Plant response rating ([3]; Postemergence, 500 g ai/ha): 35
- Plant response rating ([3]; Preemergence, 31 g ai/ha): 20
- Plant response rating ([3]; Preemergence, 62 g ai/ha): 50
- Plant response rating ([3]; Preemergence, 125 g ai/ha): 60
- Plant response rating ([3]; Preemergence, 250 g ai/ha): 95
- Plant response rating ([3]; Preemergence, 500 g ai/ha): 100

Compound: Cc1cc(=O)n(-c2ccc(F)cc2)nc1Oc1ccnc(C(F)(F)F)c1 [Compound 14, 2-(4-fluorophenyl)-5-methyl-6-[[2-(trifluoromethyl)-4-pyridinyl]oxy]-3 (2H)-pyridazinone]
- Plant response rating ([1]; Postemergence, 16 g ai/ha): 5
- Plant response rating ([1]; Postemergence, 31 g ai/ha): 10
- Plant response rating ([1]; Postemergence, 62 g ai/ha): 10
- Plant response rating ([1]; Postemergence, 125 g ai/ha): 10
- Plant response rating ([1]; Postemergence, 250 g ai/ha): 10
- Plant response rating ([1]; Preemergence, 16 g ai/ha): 0
- Plant response rating ([1]; Preemergence, 31 g ai/ha): 0
- Plant response rating ([1]; Preemergence, 62 g ai/ha): 10
- Plant response rating ([1]; Preemergence, 125 g ai/ha): 20
- Plant response rating ([1]; Preemergence, 250 g ai/ha): 70
- Plant response rating ([2]; Postemergence, 16 g ai/ha): 65
- Plant response rating ([2]; Postemergence, 31 g ai/ha): 60
- Plant response rating ([2]; Postemergence, 62 g ai/ha): 65
- Plant response rating ([2]; Postemergence, 125 g ai/ha): 75
- Plant response rating ([2]; Postemergence, 250 g ai/ha): 95
- Plant response rating ([2]; Preemergence, 16 g ai/ha): 30
- Plant response rating ([2]; Preemergence, 31 g ai/ha): 35
- Plant response rating ([2]; Preemergence, 62 g ai/ha): 40
- Plant response rating ([2]; Preemergence, 125 g ai/ha): 100
- Plant response rating ([2]; Preemergence, 250 g ai/ha): 100
- Plant response rating ([3]; Postemergence, 16 g ai/ha): 5
- Plant response rating ([3]; Postemergence, 31 g ai/ha): 5
- Plant response rating ([3]; Postemergence, 62 g ai/ha): 10
- Plant response rating ([3]; Postemergence, 125 g ai/ha): 10
- Plant response rating ([3]; Postemergence, 250 g ai/ha): 60
- Plant response rating ([3]; Preemergence, 16 g ai/ha): 10
- Plant response rating ([3]; Preemergence, 31 g ai/ha): 5
- Plant response rating ([3]; Preemergence, 62 g ai/ha): 5
- Plant response rating ([3]; Preemergence, 125 g ai/ha): 35
- Plant response rating ([3]; Preemergence, 250 g ai/ha): 65

Compound: COc1cc(=O)n(-c2ccc(C(F)(F)F)cc2)nc1Cc1ccnc(C(F)(F)F)c1 [Compound 16, 5-methoxy-2-[4-(trifluoromethyl)phenyl]-6-[[2-(trifluoromethyl)-4-pyridinyl]methyl]-3(2H)-pyridazinone]
- Plant response rating: Crabgrass, Large ([4]; 62 g ai/ha): 100
- Plant response rating: Crabgrass, Large ([4]; 125 g ai/ha): 100
- Plant response rating: Crabgrass, Large ([4]; 250 g ai/ha): 100
- Plant response rating: Goosegrass ([5]; 62 g ai/ha): 5
- Plant response rating: Goosegrass ([5]; 125 g ai/ha): 20
- Plant response rating: Goosegrass ([5]; 250 g ai/ha): 50
- Plant response rating: Smartweed ([6]; Postemergence, 62 g ai/ha): 40
- Plant response rating: Smartweed ([6]; Postemergence, 125 g ai/ha): 70
- Plant response rating: Smartweed ([6]; Postemergence, 250 g ai/ha): 70
- Plant response rating: Smartweed ([6]; Preemergence, 62 g ai/ha): 98
- Plant response rating: Smartweed ([6]; Preemergence, 125 g ai/ha): 98
- Plant response rating: Smartweed ([6]; Preemergence, 250 g ai/ha): 100
- Plant response rating: Cocklebur ([7]; 125 g ai/ha): 0
- Plant response rating: Cocklebur ([7]; 250 g ai/ha): 0
- Plant response rating: Nutsedge, Yellow ([8]; 62 g ai/ha): 20
- Plant response rating: Nutsedge, Yellow ([8]; 125 g ai/ha): 20
- Plant response rating: Nutsedge, Yellow ([8]; 250 g ai/ha): 40
- Plant response rating: Waterhemp_RES2 ([9]; 62 g ai/ha): 90
- Plant response rating: Waterhemp_RES2 ([9]; 125 g ai/ha): 95
- Plant response rating: Waterhemp_RES2 ([9]; 250 g ai/ha): 100

Compound: CCOc1cc(=O)n(-c2ccc(F)cc2)nc1Cc1ccnc(C(F)(F)F)c1 [Compound 25, 5-ethoxy-2-(4-fluorophenyl)-6-[[2-(trifluoromethyl)-4-pyridinyl]methyl]-3 (2H)-pyridazinone]
- Plant response rating: Crabgrass, Large ([4]; 8 g ai/ha): 0
- Plant response rating: Crabgrass, Large ([4]; 16 g ai/ha): 0
- Plant response rating: Crabgrass, Large ([4]; 31 g ai/ha): 75
- Plant response rating: Crabgrass, Large ([4]; 62 g ai/ha): 100
- Plant response rating: Crabgrass, Large ([4]; 125 g ai/ha): 100
- Plant response rating: Goosegrass ([5]; 8 g ai/ha): 5
- Plant response rating: Goosegrass ([5]; 16 g ai/ha): 5
- Plant response rating: Goosegrass ([5]; 31 g ai/ha): 15
- Plant response rating: Goosegrass ([5]; 62 g ai/ha): 75
- Plant response rating: Goosegrass ([5]; 125 g ai/ha): 98
- Plant response rating: Cocklebur ([7]; 8 g ai/ha): 0
- Plant response rating: Cocklebur ([7]; 16 g ai/ha): 50
- Plant response rating: Cocklebur ([7]; 31 g ai/ha): 20
- Plant response rating: Cocklebur ([7]; 62 g ai/ha): 65
- Plant response rating: Cocklebur ([7]; 125 g ai/ha): 65
- Plant response rating: Nutsedge, Yellow ([8]; 8 g ai/ha): 0
- Plant response rating: Nutsedge, Yellow ([8]; 16 g ai/ha): 0
- Plant response rating: Nutsedge, Yellow ([8]; 31 g ai/ha): 0
- Plant response rating: Nutsedge, Yellow ([8]; 62 g ai/ha): 0
- Plant response rating: Nutsedge, Yellow ([8]; 125 g ai/ha): 0
